Measurements: PMC7481407, “Inhibition of Pendrin by a small molecule reduces Lipopolysaccharide-induced acute Lung Injury” (Theranostics, 2020)

Molecular target: T1, pendrin (Homo sapiens, UniProt O43511)
T1 construct: gene SLC26A4; human wild-type pendrin expressed in human alveolar epithelial cells (hAEC)
T1 sequence (O43511 1-780): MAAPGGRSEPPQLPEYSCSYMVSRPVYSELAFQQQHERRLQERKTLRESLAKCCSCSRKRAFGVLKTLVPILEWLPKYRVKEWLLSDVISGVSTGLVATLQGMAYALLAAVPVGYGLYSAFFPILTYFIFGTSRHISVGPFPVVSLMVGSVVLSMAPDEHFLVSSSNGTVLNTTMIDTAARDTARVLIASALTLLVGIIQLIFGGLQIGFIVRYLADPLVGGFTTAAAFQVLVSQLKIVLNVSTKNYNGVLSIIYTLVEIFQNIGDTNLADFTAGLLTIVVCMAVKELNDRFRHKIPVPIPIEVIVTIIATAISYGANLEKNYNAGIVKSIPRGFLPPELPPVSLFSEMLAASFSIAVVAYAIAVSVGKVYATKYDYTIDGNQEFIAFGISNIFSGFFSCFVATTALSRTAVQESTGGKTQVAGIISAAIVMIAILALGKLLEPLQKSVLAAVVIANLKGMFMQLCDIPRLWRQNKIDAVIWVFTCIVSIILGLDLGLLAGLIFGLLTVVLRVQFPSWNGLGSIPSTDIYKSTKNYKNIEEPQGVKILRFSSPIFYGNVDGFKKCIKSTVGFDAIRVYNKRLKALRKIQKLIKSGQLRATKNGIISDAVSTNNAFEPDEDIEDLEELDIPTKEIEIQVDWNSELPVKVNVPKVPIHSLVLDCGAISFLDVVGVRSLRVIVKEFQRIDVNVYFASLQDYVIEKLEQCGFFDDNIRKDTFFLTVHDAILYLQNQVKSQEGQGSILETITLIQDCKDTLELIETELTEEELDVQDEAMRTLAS
Test: Cl-/SCN- exchange activity assay in pendrin-transfected human alveolar epithelial cells, dose-response
Type: cell-based

IC50: 4.7 ± 0.82 µM
SMILES: CC(C)(C)c1ccc(C2=N/C(=C/c3cccs3)C(=O)O2)cc1 [YS-01]
